ChEMBL document CHEMBL1141126, “Improving the antiviral efficacy and selectivity of HIV-1 reverse transcriptase inhibitor TSAO-T by the introduction of functional groups at the N-3 position” (J Med Chem, 2005)

Legend:
[1] = biological target: Human immunodeficiency virus type 1 reverse transcriptase (Human immunodeficiency virus 1, UniProt Q72547); test: Inhibitory concentration required to inhibit recombinant HIV-1 reverse transcriptase
CCRF-CEM [2] = test: Cytostatic concentration required to inhibit cell proliferation in human CEM cell line; assay type: functional
CCRF-CEM [3] = test: Ratio of cytostatic concentration to effective concentration in human CEM cell line; assay type: functional
[4] = tested on: Human immunodeficiency virus 1; test: Effective concentration required to inhibit HIV-1 induced cytopathicity in human CEM cell line; assay type: functional, organism-based; details: Human immunodeficiency virus 1, CCRF-CEM
[5] = tested on: Human immunodeficiency virus 2; test: Effective concentration required to inhibit HIV-2 induced cytopathicity in human CEM cell line; assay type: functional, organism-based; details: Human immunodeficiency virus 2, CCRF-CEM
[6] = tested on: Human immunodeficiency virus 2; test: Effective concentration required to inhibit HIV-2 induced cytopathicity in human MT-4 cell line; assay type: functional, organism-based; details: Human immunodeficiency virus 2, MT4
[7] = tested on: Human immunodeficiency virus 1; test: Effective concentration required to inhibit HIV-1/138K induced cytopathicity in human CEM cell line; assay type: functional, organism-based; details: Human immunodeficiency virus 1, CCRF-CEM
[8] = tested on: Human immunodeficiency virus 1; test: Effective concentration required to inhibit HIV-1 induced cytopathicity in human MT-4 cell line; assay type: functional, organism-based; details: Human immunodeficiency virus 1, MT4

Row | Compound | IC50 [1] [µM] | CC50 (CCRF-CEM [2]) [µM] | SI (CCRF-CEM [3]) | EC50 [4] [µM] | EC50 [5] [µM] | EC50 [6] [µM] | EC50 [7] [µM] | EC50 [8] [µM]
1 | Cc1cn([C@@H]2O[C@H](CO[Si](C)(C)C(C)(C)C)[C@@]3(OS(=O)(=O)C=C3N)[C@H]2O[Si](C)(C)C(C)(C)C)c(=O)n(CCc2ccccc2)c1=O | > 500 | 14.2 | 23 | 0.62 | > 10 | > 2 | > 10 | 
2 | Cc1cn([C@@H]2O[C@H](CO[Si](C)(C)C(C)(C)C)[C@@]3(OS(=O)(=O)C=C3N)[C@H]2O[Si](C)(C)C(C)(C)C)c(=O)n(CCCN)c1=O | 8.1 | 11.6 | 83 | 0.14 | > 10 | > 10 | > 10 | 
3 | Cc1cn([C@@H]2O[C@H](CO[Si](C)(C)C(C)(C)C)[C@@]3(OS(=O)(=O)C=C3N)[C@H]2O[Si](C)(C)C(C)(C)C)c(=O)n(CC(=O)OCc2ccccc2)c1=O | > 250 | 12.9 | 31 | 0.41 | > 5 | > 27 |  | 0.54
4 | Cc1cn([C@@H]2O[C@H](CO[Si](C)(C)C(C)(C)C)[C@@]3(OS(=O)(=O)C=C3N)[C@H]2O[Si](C)(C)C(C)(C)C)c(=O)n(CC(=O)O)c1=O | 15 | 152 | 44 | 3.48 | ≥ 155 | > 155 |  | 
5 | Cc1cn([C@@H]2O[C@H](CO[Si](C)(C)C(C)(C)C)[C@@]3(OS(=O)(=O)C=C3N)[C@H]2O[Si](C)(C)C(C)(C)C)c(=O)n(CCBr)c1=O | > 500 | 129 | 4300 | 0.03 | > 50 | > 50 | > 50 | 0.17
6 | Cc1cn([C@@H]2O[C@H](CO[Si](C)(C)C(C)(C)C)[C@@]3(OS(=O)(=O)C=C3N)[C@H]2O[Si](C)(C)C(C)(C)C)c(=O)n(CC2CC2)c1=O | > 500 | 60.4 | 335 | 0.18 | > 10 | > 50 | > 50 | 0.2
7 | CCOC(=O)CCCCCn1c(=O)c(C)cn([C@@H]2O[C@H](CO[Si](C)(C)C(C)(C)C)[C@@]3(OS(=O)(=O)C=C3N)[C@H]2O[Si](C)(C)C(C)(C)C)c1=O | > 500 | 40.6 | 312 | 0.13 | > 50 | > 50 | > 10 | 0.27
8 | CNC(=O)Cn1c(=O)c(C)cn([C@@H]2O[C@H](CO[Si](C)(C)C(C)(C)C)[C@@]3(OS(=O)(=O)C=C3N)[C@H]2O[Si](C)(C)C(C)(C)C)c1=O | 3.1 | ≥ 250 | >=12500 | 0.02 | > 50 | > 250 | 3.5 | 0.03
9 | COC(=O)Cn1c(=O)c(C)cn([C@@H]2O[C@H](CO[Si](C)(C)C(C)(C)C)[C@@]3(OS(=O)(=O)C=C3N)[C@H]2O[Si](C)(C)C(C)(C)C)c1=O | 3 | > 152 | >253 | 0.06 | > 152 | > 152 |  | 0.11
10 | Cc1cn([C@@H]2O[C@H](CO[Si](C)(C)C(C)(C)C)[C@@]3(OS(=O)(=O)C=C3N)[C@H]2O[Si](C)(C)C(C)(C)C)c(=O)n(CCc2cccc3cc[nH]c23)c1=O | > 500 | 27.6 | 81 | 0.34 | > 50 | > 10 | > 50 | 0.96
11 | CNC(=O)CCCCCn1c(=O)c(C)cn([C@@H]2O[C@H](CO[Si](C)(C)C(C)(C)C)[C@@]3(OS(=O)(=O)C=C3N)[C@H]2O[Si](C)(C)C(C)(C)C)c1=O | 2.4 | 22.1 | 442 | 0.05 | > 125 | > 125 | 10 | 0.03
12 | Cc1cn([C@@H]2O[C@H](CO[Si](C)(C)C(C)(C)C)[C@@]3(OS(=O)(=O)C=C3N)[C@H]2O[Si](C)(C)C(C)(C)C)c(=O)n(CCCN(C)C)c1=O | 6.6 | 10.4 | 61 | 0.17 | > 10 | > 10 | > 10 | 0.16
13 | Cc1cn([C@@H]2O[C@H](CO[Si](C)(C)C(C)(C)C)[C@@]3(OS(=O)(=O)C=C3N)[C@H]2O[Si](C)(C)C(C)(C)C)c(=O)n(CCCN2C(=O)c3ccccc3C2=O)c1=O | > 500 | > 250 | >2272 | 0.11 | > 250 | > 250 | > 250 | 0.29
14 | Cc1cn([C@@H]2O[C@H](CO[Si](C)(C)C(C)(C)C)[C@@]3(OS(=O)(=O)C=C3N)[C@H]2O[Si](C)(C)C(C)(C)C)c(=O)n(CCCCO)c1=O | 13 | 20.5 | 227 | 0.09 | > 10 | > 10 | ≥ 10 | 0.17
15 | Cc1cn([C@@H]2O[C@H](CO[Si](C)(C)C(C)(C)C)[C@@]3(OS(=O)(=O)C=C3N)[C@H]2O[Si](C)(C)C(C)(C)C)c(=O)n(CCC[N+](C)(C)C)c1=O.[I-] | 11 | 110 | 22 | 5 | > 25 | > 25 | > 25 | 4.9
16 | Cc1cn([C@@H]2O[C@H](CO[Si](C)(C)C(C)(C)C)[C@@]3(OS(=O)(=O)C=C3N)[C@H]2O[Si](C)(C)C(C)(C)C)c(=O)n(CC(N)=O)c1=O | > 250 | 13.3 | 266 | 0.05 | > 10 | > 10 | > 50 | 
17 | COC(=O)/C=C/Cn1c(=O)c(C)cn([C@@H]2O[C@H](CO[Si](C)(C)C(C)(C)C)[C@@]3(OS(=O)(=O)C=C3N)[C@H]2O[Si](C)(C)C(C)(C)C)c1=O | 30 | 142 | 2367 | 0.06 | > 10 | > 250 | 5.5 | 0.13
18 | Cc1cn([C@@H]2O[C@H](CO[Si](C)(C)C(C)(C)C)C3(OS(=O)(=O)C=C3N)[C@H]2O[Si](C)(C)C(C)(C)C)c(=O)[nH]c1=O (some centres undefined) |  | 12 | 200 |  | > 20 | > 20 | > 10 | 
19 | Cc1cn([C@@H]2O[C@H](CO[Si](C)(C)C(C)(C)C)[C@@]3(OS(=O)(=O)C=C3N)[C@H]2O[Si](C)(C)C(C)(C)C)c(=O)n(CCCN(CC(=O)O)CC(=O)O)c1=O | > 500 | > 250 | >63 | 4 | > 10 | > 50 | > 50 | 
20 | Cc1cn([C@@H]2O[C@H](CO[Si](C)(C)C(C)(C)C)[C@@]3(OS(=O)(=O)C=C3N)[C@H]2O[Si](C)(C)C(C)(C)C)c(=O)n(CCCO)c1=O | 3 | 3.86 | 386 | 0.01 | > 2 | > 2 |  | 
21 | COC(=O)CCCCn1c(=O)c(C)cn([C@@H]2O[C@H](CO[Si](C)(C)C(C)(C)C)[C@@]3(OS(=O)(=O)C=C3N)[C@H]2O[Si](C)(C)C(C)(C)C)c1=O | 327 | 125 | 1563 | 0.08 | ≥ 142 | > 142 |  | 0.2
